Measurements reported in ChEMBL document CHEMBL3044773, “Adulticidal activity of phthalides identified in Cnidium officinale rhizome to B- and Q-biotypes of Bemisia tabaci” (2011).
Values after ≈ are worked out from the molar mass of the structure shown.

Key:
Assay type in all cases: functional
Bemisia tabaci [1] = test: Adulticidal activity against female Bemisia tabaci biotype B (sweet potato whitefly) in cucumber leaves assessed as residual contact toxicity treated for 30 secs before adult insect infestation measured after 24 hr by leaf dip bioassay; conditions: foliar
Bemisia tabaci [2] = test: Biotype susceptibility ratio, ratio of LC50 for female adult Bemisia tabaci biotype Q (sweet potato whitefly) to LC50 for female adult Bemisia tabaci biotype B
Bemisia tabaci [3] = test: Adulticidal activity against female Bemisia tabaci biotype Q (sweet potato whitefly) in cucumber leaves assessed as residual contact toxicity treated for 30 secs before adult insect infestation measured after 24 hr by leaf dip bioassay; conditions: foliar

SMILES | LC50 (Bemisia tabaci [1]) [µg/mL] | RatioLC50 (Bemisia tabaci [2]) | LC50 (Bemisia tabaci [3]) [µg/mL]
CCC/C=C1\OC(=O)C2=C1CCC=C2 [LIGUSTILIDE] | 268 (≈ 1410 µM) | 0.9 | 254 (≈ 1340 µM)
CCN(CC)c1nc(C)cc(OP(=S)(OC)OC)n1 [PIRIMIPHOS METHYL] | 188 (≈ 616 µM) | 1.3 | 235 (≈ 770 µM)
C/C(=N\C#N)N(C)Cc1ccc(Cl)nc1 [ACETAMIPRID] | 11.6 (≈ 52.1 µM) | 31.4 | 364 (≈ 1640 µM)
CCCC[C@@H]1OC(=O)c2ccccc21 [(3S)-BUTYLPHTHALIDE] | 339 (≈ 1780 µM) | 1 | 338 (≈ 1780 µM)
CC(C)(C)c1ccc(CSc2cnn(C(C)(C)C)c(=O)c2Cl)cc1 [PYRIDABEN] | 129 (≈ 354 µM) | 1.6 | 211 (≈ 578 µM)
O=[N+]([O-])/N=C1\NCCN1Cc1ccc(Cl)nc1 [IMIDACLOPRID] | 7 (≈ 27.4 µM) | >428.6 | > 3000
COP(=O)(OC)OC=C(Cl)Cl [DICHLORVOS] | 182 (≈ 825 µM) | 1.2 | 224 (≈ 1010 µM)
CCC/C=C1\OC(=O)c2ccccc21 [Z-butylidenephthalide] | 254 (≈ 1350 µM) | 2.3 | 586 (≈ 3110 µM)
CC1(C)C(C=C(Cl)Cl)C1C(=O)OC(C#N)c1cccc(Oc2ccccc2)c1 (stereo not drawn) [ALPHA-CYPERMETHRIN] | 337 (≈ 809 µM) | 1.4 | 482 (≈ 1160 µM)
CN1COCN(Cc2cnc(Cl)s2)/C1=N\[N+](=O)[O-] [THIAMETHOXAM] | 1.7 (≈ 5.83 µM) | >1764.7 | > 3000
